Test results: patent publication US20110237592A1, “SUBSTITUTED AMIDO PHENOXYBENZAMIDES” (BAYER SCHERING PHARMA AKTIENGESELLSCHAFT, priority 2008, published 2011)

Key:
colon cancer = settings: oral treatment, mouse models, ref. [18]; cited from earlier work
MEK1/2 = settings: background statement, ref. [17]; cited from earlier work
MEK1 = target: T1, MEK1 (Homo sapiens, UniProt Q02750); assay: MEK1 activation kinase assay (Cot1, HTRF); type: biochemical; settings: inhibition of Cot1-mediated activation of GST-MEK1, HTRF
T1 construct: purchased Millipore 14-420
Source text: The kinase Cot1 activates MEK1 by phosphorylating its activation loop. The inhibitory activity of compounds of the present invention on this activation of MEK1 was quantified employing the HTRF assay described in the following paragraphs.
N-terminally His6-tagged recombinant kinase domain of the human Cot1 (amino acids 30-397, purchased from Millipore, cat. no 14-703) expressed in insect cells (SF21) and purified by Ni-NTA affinity chromatography was used as kinase. As substrate for the kinase reaction the unactive C-terminally His6-tagged GST-MEK1 fusion protein (Millipore cat. no 14-420) was used.
For the assay 50 nl of a 100 fold concentrated solution of the test compound in DMSO was pipetted into a black low volume 384 well microtiter plate (Greiner Bio-One, Frickenhausen, Germany), 3 μl of a solution of 24 nM GST-MEK1 and 166.7 μM adenosine-tri-phosphate (ATP) in assay buffer [50 mM Tris/HCl pH 7.5, 10 mM MgCl2, 2 mM dithiothreitol, 0.01% (v/v) Igepal CA 630 (Sigma), 5 mM β-phospho-glycerol] were added and the mixture was incubated for 10 min at 22° C. to allow pre-binding of the test compounds to the GST-MEK1 before the start of the kinase reaction. Then the kinase reaction was started by the addition of 2 μl of a solution of Cot1 in assay buffer and the resulting mixture was incubated for a reaction time of 20 min at 22° C. […]
The resulting mixture was incubated 2 h at 22° C. to allow the binding of the phosphorylated GST-MEK1 to the anti-GST-XL665 and the Eu-cryptate labelled anti-phospho-MEK 1/2 antibody. Subsequently the amount of Ser217/Ser221-phosphorylated substrate was evaluated by measurement of the resonance energy transfer from the Eu-Cryptate-labelled anti-phospho-MEK antibody to the anti-GST-XL665. Therefore, the fluorescence emissions at 620 nm and 665 nm after excitation at 350 nm was measured in a HTRF reader, e.g. a Rubystar (BMG Labtechnologies, Offenburg, Germany) or a Viewlux (Perkin-Elmer). […]

A375 cells = assay: A375 proliferation crystal violet (CV) assay; type: cell-based; settings: Homo sapiens, A-375, 96 h, crystal violet staining, 4 days
Method: Alternatively, the cell proliferation was measured by crystal violet (CV) staining: Assay 7
Cultivated human A375 cells were plated out in a density of 1500 cells/measurement point in 200 μl of growth medium (DMEM/HAMS F12 (Biochrom; FG4815) with 10% FBS and 2 mM Glutamine) in a 96-well multititer plate. After 24 hours, the cells from a plate (zero plate) were stained with crystal violet (see below), while the medium in the other plates was replaced by fresh culture medium (200 μl) to which the test substances had been added in various concentrations (0 μM, and in the range 0.3 nM-30 μM; the final concentration of the solvent dimethyl sulphoxide was 0.5%). The cells were incubated in the presence of the test substances for 4 days. The cell proliferation was determined by staining the cells with crystal violet: the cells were fixed by adding 20 μl/measurement point of an 11% glutaraldehyde solution at room temperature for 15 min. After the fixed cells had been washed three times with water, the plates were dried at room temperature. The cells were stained by adding 100 μl/measurement point of a 0.1% crystal violet solution (pH adjusted to pH 3 by adding acetic acid). After the stained cells had been washed three times with water, the plates were dried at room temperature. The dye was dissolved by adding 100 μl/measurement point of a 10% acetic acid solution, and the extinction was determined by photometry at a wavelength of 595 nm. The percentage change in cell growth was calculated by normalizing the measurements to the extinctions of the zero point plate (=0%) and the extinction of the untreated (0 μM) cells (=100%). The IC50 values were determined by means of a 4-parameter fit using the company's own software.

[1] = currently preferred example compounds

T1 sequence (Q02750 whole entry): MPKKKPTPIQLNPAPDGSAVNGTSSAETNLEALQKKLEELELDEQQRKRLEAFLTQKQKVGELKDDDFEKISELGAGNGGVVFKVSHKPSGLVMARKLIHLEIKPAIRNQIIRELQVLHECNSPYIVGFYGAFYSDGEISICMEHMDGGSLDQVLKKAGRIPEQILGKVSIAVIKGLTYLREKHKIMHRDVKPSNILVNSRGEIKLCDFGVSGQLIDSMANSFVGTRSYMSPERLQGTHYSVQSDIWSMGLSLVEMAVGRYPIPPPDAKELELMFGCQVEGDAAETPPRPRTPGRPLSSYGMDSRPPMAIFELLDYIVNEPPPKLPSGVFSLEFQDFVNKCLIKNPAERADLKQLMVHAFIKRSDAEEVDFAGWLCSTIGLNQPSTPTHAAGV

IC50 (A375 cells; [1]) | Compound | also measured
– | O=C(NOCC1CC1)c1ccc(F)c(F)c1Nc1ccc(I)cc1Cl [CI-1040] | colon cancer growth in vivo (colon cancer): inhibit colon cancer growth in vivo; IC50 (MEK1/2): low nanomolar range
< 100 nM | CC(C)(O)C(=O)Nc1cccc(Oc2cc(F)cc(Nc3ccc(I)cc3F)c2C(N)=O)c1 [Example 1.1, 4-Fluoro-2-(2-fluoro-4-iodo-phenylamino)-6-[3-(2-hydroxy-2-methylpropionylamino)-phenoxy]-benzamide] | IC50 (MEK1): < 100 nM; IC50 (A375 cells): < 1000 nM
< 100 nM | NC(=O)c1c(Nc2ccc(I)cc2F)cc(F)cc1Oc1cccc(NC(=O)CO)c1 [Example 3.1, 4-Fluoro-2-(2-fluoro-4-iodo-phenylamino)-6-[3-(2-hydroxy-acetylamino)-phenoxy]-benzamide] | –
< 100 nM | COCC(=O)Nc1cccc(Oc2cc(F)cc(Nc3ccc(I)cc3F)c2C(N)=O)c1 [Example 3.2, 4-Fluoro-2-(2-fluoro-4-iodo-phenylamino)-6-[3-(2-methoxy-acetylamino)-phenoxy]-benzamide] | –
< 100 nM | CSCC(=O)Nc1cccc(Oc2cc(F)cc(Nc3ccc(I)cc3F)c2C(N)=O)c1 [Example 3.3, 4-Fluoro-2-(2-fluoro-4-iodo-phenylamino)-6-[3-(2-methylsulfanyl-acetylamino)-phenoxy]-benzamide] | –
< 100 nM | NC(=O)c1c(Nc2ccc(I)cc2F)cc(F)cc1Oc1cccc(NC(=O)C2CCOCC2)c1 [Example 3.5, Tetrahydro-pyran-4-carboxylic acid {3-[2-carbamoyl-5-fluoro-3-(2-fluoro-4-iodo-phenylamino)-phenoxy]-phenyl}-amide] | –
< 100 nM | CC(O)C(=O)Nc1cccc(Oc2cc(F)cc(Nc3ccc(I)cc3F)c2C(N)=O)c1 (stereo not drawn) [Example 3.6, 4-Fluoro-2-(2-fluoro-4-iodo-phenylamino)-6-[3-(2-hydroxy-propionylamino)-phenoxy]-benzamide] | –
< 100 nM | NC(=O)c1c(Nc2ccc(I)cc2F)cc(F)cc1Oc1cccc(NC(=O)CN2CCOCC2)c1 [Example 3.7, 4-Fluoro-2-(2-fluoro-4-iodo-phenylamino)-6-[3-(2-morpholin-4-yl-acetylamino)-phenoxy]-benzamide] | –
– | CN1CCC(C(=O)Nc2cccc(Oc3cc(F)cc(Nc4ccc(I)cc4F)c3C(N)=O)c2)CC1 [Example 3.17, 1-Methyl-piperidine-4-carboxylic acid {3-[2-carbamoyl-5-fluoro-3-(2-fluoro-4-iodo-phenylamino)-phenoxy]-phenyl}-amide] | IC50 (MEK1): < 100 nM
< 100 nM | NC(=O)c1c(Nc2ccc(I)cc2F)cc(F)cc1Oc1ccc2oc(=O)[nH]c2c1 [Example 4.1, 4-Fluoro-2-(2-fluoro-4-iodo-phenylamino)-6-(2-oxo-2,3-dihydro-benzooxazol-5-yloxy)-benzamide] | IC50 (MEK1): < 100 nM
– | NC(=O)c1c(Nc2ccc(I)cc2F)cc(F)cc1Oc1cccc(NC(=O)C(F)(F)F)c1 [Example 5.1, 4-Fluoro-2-(2-fluoro-4-iodo-phenylamino)-6-[3-(2,2,2-trifluoro-acetylamino)-phenoxy]-benzamide] | IC50 (A375 cells): < 1000 nM
